Results: ChEMBL document CHEMBL1132315, “Pharmacophore models of group I and group II metabotropic glutamate receptor agonists. Analysis of conformational, steric, and topological parameters affecting potency and selectivity” (J Med Chem, 1999)

Legend:
[1] = The effective concentration for 50% glutamate response was measured on Group II Metabotropic glutamate receptor; format: functional
[2] = The effective concentration for 50% glutamate response was measured on Group I Metabotropic glutamate receptor; format: functional
[3] = (§1) Percentage of glutamate maximal response was measured on Group II Metabotropic glutamate receptor; format: functional
[4] = Percent glutamate response was measured on group 1 Metabotropic Glutamate Receptors
[5] = as §1; format: functional; remark: listed apart in the source

## N[C@@]1(C(=O)O)CC[C@H](C(=O)O)C1
[1]
  EC50: 13 µM
[2]
  EC50: > 300 µM

## NC(C(=O)O)C1[C@@H](C(=O)O)[C@@H]1C(=O)O (stereo not given in full)
[3]
  EC50: 0.1 µM

## N[C@@]1(C(=O)O)CC[C@@H](C(=O)O)C1
[1]
  EC50: 18 µM
[2]
  EC50: 9.3 µM

## N[C@]1(C(=O)O)CC[C@H](C(=O)O)C1
[1]
  EC50: 110 µM
[2]
  EC50: 127 µM

## NC1(C(=O)O)C2CCC1C(C(=O)O)C2 (stereo not given)
[4]
  Response: 10%
[3]
  EC50: 30 µM

## N[C@H](C(=O)O)c1cc(O)cc(O)c1
[2]
  EC50: 6.6 µM

## N[C@@]1(C(=O)O)CN[C@@H](C(=O)O)C1
[1]
  EC50: 3.5 µM
[2]
  EC50: > 1000 µM

## O=C(O)[C@H]1C[C@H](C(=O)O)N1
[1]
  EC50: > 100 µM
[2]
  EC50: 189 µM

## N[C@H](C(=O)O)c1cccc(O)c1
[5]
  Response: < 15%

## N[C@@H](C(=O)O)[C@H]1CC1C(=O)O (single isomer, unassigned)
[1]
  EC50: 0.3 µM
[2]
  EC50: 5 µM

## N[C@@H](C(=O)O)[C@@H]1CC1C(=O)O (single isomer, unassigned)
[2]
  EC50: 20 µM

## NC1(C(=O)O)CC2CCC1C2C(=O)O (stereo in doubt; 8)
[5]
  Response: 50%

## NC1(C(=O)O)CC2CCC1C2C(=O)O (stereo in doubt; 9)
[4]
  Response: 12%
[5]
  Response: 50%

## NC1(C(=O)O)CC2CC1C2C(=O)O (stereo in doubt; 12)
[1]
  EC50: 0.33 µM
[2]
  EC50: 1.6 µM

## NC1(C(=O)O)CC2CC1C2C(=O)O (stereo in doubt; 21)
[1]
  EC50: 54 µM
[2]
  EC50: 121 µM

## NC1(C(=O)O)CC2CC1C2C(=O)O (stereo in doubt; 22)
[1]
  EC50: 38 µM
[2]
  EC50: 232 µM

## N[C@@]1(C(=O)O)CC[C@H]2[C@H](C(=O)O)[C@H]21 [EGLUMETAD]
[1]
  EC50: 0.032 µM
[2]
  EC50: > 1000 µM

## N[C@@H](CCC(=O)O)C(=O)O [GLUTAMIC ACID]
[1]
  EC50: 0.29 µM
[2]
  EC50: 4.9 µM

## N[C@H](C(=O)O)c1cc(O)no1 [IBOTENIC ACID]
[1]
  EC50: 50 µM
[2]
  EC50: 6 µM

## N[C@@H](Cn1oc(=O)[nH]c1=O)C(=O)O [QUISQUALATE]
[1]
  EC50: 100 µM
[2]
  EC50: 0.9 µM
